Assay results reported in the supplement of paper PMC4862054.

Tests used:
Assay in all cases: normalised response (% of control), CellTiter-Glo; higher = more viable cells (100 = DMSO, 0 = benzethonium chloride kill control)
Conditions in all cases: incubation time: 72 h
BT-474 = tested on: BT-474
Summary of the method: (§1)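 Each value is the plate-normalised signal at one concentration of the series. Breast cancer cell lines (20 µl suspension) were incubated 72 h in 384-well plates with compound at 5 concentrations in 10-fold steps over a compound-specific 10,000-fold range. CellTox Green and then CellTiter-Glo were read, and each plate was scaled to 0.1 % DMSO (100) and a positive kill control (0).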

BT-549 = tested on: BT-549
Summary of the method: as §1

CAL-120 = tested on: CAL-120
Summary of the method: as §1

CAL-148 = tested on: CAL-148
Summary of the method: as §1

CAL-51 = tested on: CAL-51
Summary of the method: as §1

CAL-85-1 = tested on: CAL-85-1
Summary of the method: as §1

DU-4475 = tested on: DU-4475
Summary of the method: as §1

HCC1143 = tested on: HCC1143
Summary of the method: as §1

HCC1599 = tested on: HCC1599
Summary of the method: as §1

HCC1937 = tested on: HCC1937
Summary of the method: as §1

HDQ-P1 = tested on: HDQ-P1
Summary of the method: as §1

Hs578T = tested on: Hs578T
Summary of the method: as §1

MCF-10A = tested on: MCF-10A
Summary of the method: as §1

MDA-MB-231 = tested on: MDA-MB-231
Summary of the method: as §1

MDA-MB-436 = tested on: MDA-MB-436
Summary of the method: as §1

MDA-MB-453 = tested on: MDA-MB-453
Summary of the method: as §1

MDA-MB-468 = tested on: MDA-MB-468
Summary of the method: as §1

MFM-223 = tested on: MFM-223
Summary of the method: as §1

SK-BR-3 = tested on: SK-BR-3
Summary of the method: as §1

Compound | normalised response (BT-474) [%] | normalised response (BT-549) [%] | normalised response (CAL-120) [%] | normalised response (CAL-148) [%] | normalised response (CAL-51) [%] | normalised response (CAL-85-1) [%] | normalised response (DU-4475) [%] | normalised response (HCC1143) [%] | normalised response (HCC1599) [%] | normalised response (HCC1937) [%] | normalised response (HDQ-P1) [%] | normalised response (Hs578T) [%] | normalised response (MCF-10A) [%] | normalised response (MDA-MB-231) [%] | normalised response (MDA-MB-436) [%] | normalised response (MDA-MB-453) [%] | normalised response (MDA-MB-468) [%] | normalised response (MFM-223) [%] | normalised response (SK-BR-3) [%]
C[C@]12O[C@H](C[C@]1(O)CO)n1c3ccccc3c3c4c(c5c6ccccc6n2c5c31)CNC4=O [Lestaurtinib] (1 nM) | 104 | 97.3 | 93.9 | 100 | 133 | 104 | 97.7 | 102 | 90.8 | 98.9 | 95.4 | 101 | 96.6 | 99.8 | 100 | 94.3 | 102 | 101 | 
CS(=O)(=O)N1CCN(Cc2cc3nc(-c4cccc5[nH]ncc45)nc(N4CCOCC4)c3s2)CC1 [Pictilisib] (1 nM) | 92.7 | 104 | 93.9 | 93.1 | 102 | 119 | 104 |  | 96.8 | 95 | 97.3 | 99.7 | 102 | 101 | 91.1 | 112 | 99.5 | 104 | 107
CNC(=O)c1cc(Oc2ccc(NC(=O)Nc3ccc(Cl)c(C(F)(F)F)c3)cc2)ccn1 [Sorafenib] (1 nM) | 104 | 94.7 | 98.2 | 114 | 119 | 104 | 103 | 100 | 109 | 101 | 102 | 102 | 105 | 102 | 96.4 | 93.8 | 106 | 107 | 
CC[C@@]1(O)C(=O)OCc2c1cc1n(c2=O)Cc2cc3c(CN(C)C)c(O)ccc3nc2-1 [Topotecan] (10 nM) | 98.2 | 90.3 | 96.1 | 103 | 91.9 | 95.8 | 95.4 | 93.9 | 93.2 | 95.8 | 98.4 | 100 | 92.7 | 94.1 | 94.4 | 104 | 97.6 | 99.9 | 
c1cc(CN2CCCNCCNCCCNCC2)ccc1CN1CCCNCCNCCCNCC1 [Plerixafor] (10 nM) | 97.2 | 99.6 | 96.2 | 91.1 | 82.7 | 93.1 | 91.1 | 105 | 95.2 | 102 | 103 | 97.7 | 81.5 | 99 | 97.3 | 81.9 | 94.1 | 88.6 | 
Cc1cccc(-c2nn3c(c2-c2ccnc4ccc(C(N)=O)cc24)CCC3)n1 [Galunisertib] (1 nM) | 109 | 102 | 101 | 123 | 92.5 | 99.5 | 107 | 111 | 103 | 99 | 102 | 103 | 102 | 105 | 108 | 115 | 104 | 107 | 
O=C(NC[C@H](O)CO)c1ccncc1Nc1ccc(I)cc1F [Pimasertib] (10 nM) | 102 | 91.4 | 103 | 90.8 | 124 | 87.8 | 83.9 | 94.2 | 105 | 102 | 81.1 | 92.2 | 66.6 | 97.6 | 107 | 99.7 | 91.9 | 99.2 | 
O=C(Nc1c[nH]nc1-c1nc2ccc(CN3CCOCC3)cc2[nH]1)NC1CC1 [AT9283] (1 nM) | 95.7 | 97.3 | 93.4 | 94.5 | 103 | 98.7 | 102 | 102 | 101 | 102 | 103 | 98.7 | 101 | 102 | 103 | 98.6 | 97.5 | 103 | 
CCC/C=C/C=C/C(=O)O[C@H]1/C(=C/C(=O)OC)C[C@H]2C[C@H]([C@@H](C)O)OC(=O)C[C@H](O)C[C@@H]3C[C@H](OC(C)=O)C(C)(C)[C@](O)(C[C@@H]4C/C(=C/C(=O)OC)C[C@H](/C=C/C(C)(C)[C@]1(O)O2)O4)O3 [Bryostatin 1] (0.1 nM) | 103 | 95.8 | 91.1 | 115 | 119 | 98.2 | 97 | 101 | 116 | 99 | 91.5 | 95.5 | 109 | 103 | 107 | 97.7 | 94.3 | 105 | 
CO[C@@H](C(=O)N1Cc2[nH]nc(NC(=O)c3ccc(N4CCN(C)CC4)cc3)c2C1)c1ccccc1 [Danusertib] (10 nM) | 102 | 99.7 | 93.4 | 95.7 | 113 | 94.9 | 102 | 95.7 | 98.1 | 93.8 | 97.9 | 99.2 | 103 | 96.6 | 105 | 103 | 87.1 | 103 | 
